Patent US10294496B2, “Methods for biosynthesizing 1,3 butadiene” (INVISTA North America S.á r.l., priority 2013, dated 2019)

Target: T1, linalool dehydratase (EC 4.2.1.127) (Castellaniella defragrans, UniProt E1XUJ2)
T1 construct: His tag; made in house; host or cells: E. coli BL21 (pARZ4 vector)
Assay: Enzyme activity of linalool dehydratase using 3-buten-2-ol as substrate (headspace GC-MS for butadiene)
Format: biochemical
Settings: 11 mM 3-buten-2-ol, 25° C., purified his-tagged enzyme, butadiene in headspace by GC-MS
Source text: The his-tagged linalool dehydratase (EC 4.2.1.127) from Castellaniella defragrans was cloned into a pARZ4 vector and transformed into E. coli BL21. The resulting strain was cultivated and induced using […] (isopropylthio-β-galactoside) in a shake flask culture containing Luria Broth media and kanamycin selection pressure.
The cells from each of the induced shake flask cultures were harvested and pelleted by centrifugation. The cell pellet was resuspended and the cells were lysed. The cell debris was separated from the supernatant via centrifugation and filtered using a 0.2 μm filter. The enzyme was purified from the filtered supernatant using Ni-affinity chromatography and concentrated and buffer exchanged using a Vivaspin 15R Centrifugal Concentrator and Hi-trap Desalting column into 80 mM Tris buffer (pH=9).
Non-native enzyme activity assays were undertaken in a buffer containing 11 mM of 3-buten-2-ol at 25° C. The activity assays were undertaken in 2 mL septum-sealed vials, thereby allowing butadiene accumulation in the headspace. The reaction was initiated by adding 1 mL of purified enzyme to the assay buffer containing the substrate.
The headspace was sampled for butadiene analysis by GC-MS (gas chromatography-mass spectrometry). […] Also, the ion peak areas were above the limit of quantitation for the GC-MS.

T1 sequence (E1XUJ2 27-397): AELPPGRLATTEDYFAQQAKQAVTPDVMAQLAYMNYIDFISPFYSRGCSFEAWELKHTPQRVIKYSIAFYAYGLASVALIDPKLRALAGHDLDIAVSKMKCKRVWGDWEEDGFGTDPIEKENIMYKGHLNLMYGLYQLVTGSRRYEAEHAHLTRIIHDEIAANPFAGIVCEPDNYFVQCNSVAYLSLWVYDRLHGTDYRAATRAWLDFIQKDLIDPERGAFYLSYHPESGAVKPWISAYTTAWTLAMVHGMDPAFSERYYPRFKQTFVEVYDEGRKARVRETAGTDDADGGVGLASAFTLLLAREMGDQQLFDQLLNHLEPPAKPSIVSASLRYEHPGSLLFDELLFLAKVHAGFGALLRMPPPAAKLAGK

C=CC(C)O (stereo not shown) [3-buten-2-ol]
non-native enzyme activity: substrate acceptance, synthesis of butadiene: accepts 3-buten-2-ol as a substrate
